Measured values taken from ChEMBL document CHEMBL1201862, “PubChem BioAssay data set” (2004).
Calls of active or inactive are those of the source.

Columns and labels:
HeLa = experiment: HeLa cell cytotoxicity, dose response, cytotoxicity control for MITF activator project, CellTiter-Glo luminescence, cherry-pick samples (AID 540259); assay type: functional, cell-based; details: Homo sapiens
[1] = THP-1 cell cytotoxicity, dose response, cytotoxicity control for non-replicating M. tuberculosis project (AID 489025); assay type: functional
[2] = control 3'UTR Renilla luciferase suppression, dose response, counter-screen for Shn3 inhibitor project, cell-based, Clone20-Shn3RL, cherry-picked (AID 624133); assay type: functional
Beta-galactosidase = Beta-galactosidase (Escherichia coli, UniProt Q8VNN2); experiment: beta-galactosidase enzyme inhibitors and activators, dose response, artefact control for CCR6 antagonist project, biochemical, E. coli enzyme, set 3 (AID 504712); assay type: functional
[3] = biological target: T1, Microphthalmia-associated transcription factor (Homo sapiens, UniProt O75030); experiment: TRPM1 promoter luciferase signal decrease, dose response, MITF inhibitor project, cell-based, SK-MEL-5, cherry-picked, set 3 (AID 493073); assay type: functional
T1 sequence (O75030 whole entry): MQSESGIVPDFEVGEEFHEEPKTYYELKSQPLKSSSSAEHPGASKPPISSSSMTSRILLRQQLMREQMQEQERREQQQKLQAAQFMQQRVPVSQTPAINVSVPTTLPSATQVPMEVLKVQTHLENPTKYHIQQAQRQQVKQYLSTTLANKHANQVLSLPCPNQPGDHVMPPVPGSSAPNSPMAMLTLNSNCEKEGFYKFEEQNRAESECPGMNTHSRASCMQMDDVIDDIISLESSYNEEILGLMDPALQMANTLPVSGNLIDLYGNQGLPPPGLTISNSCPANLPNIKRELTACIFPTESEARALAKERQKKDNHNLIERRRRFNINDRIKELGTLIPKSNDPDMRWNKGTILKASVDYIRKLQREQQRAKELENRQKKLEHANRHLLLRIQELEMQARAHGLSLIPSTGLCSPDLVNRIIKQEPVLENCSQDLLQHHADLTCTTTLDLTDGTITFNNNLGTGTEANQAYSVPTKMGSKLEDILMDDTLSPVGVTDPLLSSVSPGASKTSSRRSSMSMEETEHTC

A-375 [4] = experiment: A375 melanoma cell viability reduction, dose response, counter-screen for MITF modulator project, cherry-pick samples, set 2 (AID 540335); assay type: functional, cell-based; details: Homo sapiens
A-375 [5] = experiment: MITF: Counter assay: A375 proliferation Measured in Cell-Based System Using Plate Reader - 2084-03_Inhibitor_Dose_DryPowder_Activity. [Related pubchem assays (depositor defined):AID488944]; assay type: functional; details: Homo sapiens
cells = assay type: functional
[6] = Shn3 3'UTR reporter inhibitors, dose response, cell-based, Clone20 osteoblasts, firefly luciferase, cherry-picked (AID 624132); assay type: functional;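 note: firefly luciferase luminescence from reporter carrying the Shn3 3'UTR in osteoblasts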
[7] = biological target: Eukaryotic translation initiation factor 4E (Mus musculus, UniProt P63073); experiment: eIF4E–eIF4G protein interaction inhibitors, dose response, biochemical, TR-FRET (AID 855); assay type: functional;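 note: potency for disrupting eIF4E binding to eIF4GI seen as loss of FRET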
[8] = HepG2 cell cytotoxicity, dose response, cytotoxicity control for Shn3 inhibitor project, CellTiter-Glo, cherry-picked (AID 624134); assay type: functional, cell-based
[9] = Luminescence Cell-Based Dose Retest to Confirm Inhibitors of Cancer Stem Cells. [Related pubchem assays (depositor defined):AID2717, AID2721]; assay type: functional; details: Homo sapiens
[10] = biological target: Luciferin 4-monooxygenase (Photuris pensylvanica, UniProt Q27757); experiment: firefly luciferase enzyme inhibitors, dose response, counter-screen for HSF-1 reporter inhibitor project, biochemical, Cell Titer Glo, luminescence, cherry-picks (AID 588847)
Luciferin 4-monooxygenase, sequence (Q27757 whole entry): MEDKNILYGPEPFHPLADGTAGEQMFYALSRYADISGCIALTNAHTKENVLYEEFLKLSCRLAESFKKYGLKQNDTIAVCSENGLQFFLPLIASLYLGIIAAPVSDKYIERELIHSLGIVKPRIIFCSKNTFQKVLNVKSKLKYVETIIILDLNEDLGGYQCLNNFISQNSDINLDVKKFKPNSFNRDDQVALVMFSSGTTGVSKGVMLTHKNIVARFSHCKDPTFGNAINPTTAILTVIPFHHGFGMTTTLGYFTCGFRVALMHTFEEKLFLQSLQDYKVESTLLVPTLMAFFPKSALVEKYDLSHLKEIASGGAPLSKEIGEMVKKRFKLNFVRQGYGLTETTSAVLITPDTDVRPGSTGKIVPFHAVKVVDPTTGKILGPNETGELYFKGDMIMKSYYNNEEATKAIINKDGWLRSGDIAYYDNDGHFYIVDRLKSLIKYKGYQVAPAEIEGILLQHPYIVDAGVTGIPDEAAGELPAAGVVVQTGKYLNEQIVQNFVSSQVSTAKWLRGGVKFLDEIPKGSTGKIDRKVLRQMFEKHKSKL

Beta-galactosidase, sequence (Q8VNN2 whole entry): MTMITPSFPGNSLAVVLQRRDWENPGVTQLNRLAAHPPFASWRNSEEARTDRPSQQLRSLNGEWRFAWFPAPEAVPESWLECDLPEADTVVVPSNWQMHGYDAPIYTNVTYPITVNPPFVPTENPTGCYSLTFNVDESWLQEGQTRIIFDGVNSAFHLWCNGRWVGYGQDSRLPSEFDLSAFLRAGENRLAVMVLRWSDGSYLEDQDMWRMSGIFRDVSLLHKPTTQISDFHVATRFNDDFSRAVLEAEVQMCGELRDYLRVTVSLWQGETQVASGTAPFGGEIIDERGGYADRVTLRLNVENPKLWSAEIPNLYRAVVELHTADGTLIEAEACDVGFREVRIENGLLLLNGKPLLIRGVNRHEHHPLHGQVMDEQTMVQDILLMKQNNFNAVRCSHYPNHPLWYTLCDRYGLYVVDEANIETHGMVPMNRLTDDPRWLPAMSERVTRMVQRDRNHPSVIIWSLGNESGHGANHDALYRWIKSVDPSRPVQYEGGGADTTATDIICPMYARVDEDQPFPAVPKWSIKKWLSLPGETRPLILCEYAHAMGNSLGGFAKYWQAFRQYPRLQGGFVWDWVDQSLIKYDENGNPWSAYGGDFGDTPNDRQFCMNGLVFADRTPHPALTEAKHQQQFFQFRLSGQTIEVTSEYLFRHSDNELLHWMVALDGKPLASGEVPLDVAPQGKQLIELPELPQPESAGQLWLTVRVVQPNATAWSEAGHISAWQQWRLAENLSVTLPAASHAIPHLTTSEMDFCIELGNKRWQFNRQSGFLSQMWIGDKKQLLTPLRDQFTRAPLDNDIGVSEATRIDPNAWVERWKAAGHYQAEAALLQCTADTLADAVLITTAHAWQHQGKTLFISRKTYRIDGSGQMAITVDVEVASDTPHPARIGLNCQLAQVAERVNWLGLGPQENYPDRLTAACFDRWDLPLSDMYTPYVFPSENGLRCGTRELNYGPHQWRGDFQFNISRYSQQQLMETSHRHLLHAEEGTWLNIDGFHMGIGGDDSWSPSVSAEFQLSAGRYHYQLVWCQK
Eukaryotic translation initiation factor 4E, sequence (P63073 whole entry): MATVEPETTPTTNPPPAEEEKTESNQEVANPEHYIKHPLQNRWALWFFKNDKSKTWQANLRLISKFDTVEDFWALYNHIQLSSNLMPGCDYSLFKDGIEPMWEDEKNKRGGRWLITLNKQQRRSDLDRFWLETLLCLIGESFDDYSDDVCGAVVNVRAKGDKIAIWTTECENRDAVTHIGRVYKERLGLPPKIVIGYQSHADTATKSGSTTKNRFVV

## Cc1ccc(C(=O)O/N=C(\N)c2ccc(Br)cc2)cc1
HeLa
  AC50: 48.5 µM (active)

## Cc1ccc(Oc2c(C(N)=O)cc([N+](=O)[O-])cc2[N+](=O)[O-])cc1
[1]
  CC50: 22.4 µM (active)
[2]
  AC50: 4.73 µM (active)
Beta-galactosidase
  IC50: > 66.6 µM (inactive)
[3]
  AC50: 3.68 µM (active)
A-375 [4]
  AC50: > 11 µM (active)
A-375 [5]
  AC50: > 11 µM (active)
cells
  IC50: 1.31 µM (active)
[6]
  AC50: 11.9 µM (active)
[7]
  IC50: > 64 µM (inactive)
[8]
  AC50: 25.2 µM (active)
[9]
  AC50: 2.99 µM (active)

## CC12CCC(=O)C=C1CCC1C2C(O)CC2(C)C1CCC2(O)C(=O)CO (stereo not drawn)
[10]
  AC50: > 52 µM (inactive)
